Entries after “also recorded” stand apart in the source; their conditions may differ. One block for each molecule: values may come before it.
Legend:
[1] = system: Panc-28 cells; assay: Annexin V-Alexa-488 / propidium iodide apoptosis assay in Panc-28 cells; assay type: cell-based; settings: for annexin V-stained cells: Panc-28, 10 and 20 μM, 8 and 12 hr (FIG. 5C)
Experimental: Detection of phosphatidylserine on the outside of the cell membrane, a unique and early marker for apoptosis, was performed using a commercial kit (Vybrant Apoptosis Assay Kit #2; Molecular Probes, Eugene, Oreg.). […] Binding of annexin V-Alexa-488 conjugate and propidium iodide (PI) was performed according to the manufacturer's instructions. After binding and washing, cells were observed under phase contrast and epifluorescent illumination using a 495-nm excitation filter and a 520-nm absorption filter for annexin V-Alexa 488 and a 546-nm excitation filter and a 590-nm absorption filter for PI. Healthy cells were unstained by either dye; cells in early stages of apoptosis were stained only by annexin V, while dead cells were stained by annexin V and PI. The assay was repeated on three separate Panc-28 cell preparations.

[2] = target: T1, GAL4-Nur77 (Homo sapiens, UniProt P22736); assay: Nur77 antagonist assay: cotreatment with Nur77 agonists, GAL4-Nur77/pGAL4 in Panc-28 cells; assay type: cell-based; settings: for Nur77 antagonist activity (inhibition of agonist-induced transactivation): Panc-28, cotreatment with Nur77 agonists, 10 or 20 μM (FIG. 2C-2E)
T1 construct: expressed in transfected cells; host or cells: Panc-28
Description: (§1) Transfection assays were essentially carried out as previously described using Lipofectamine Plus reagent (Invitrogen, Carlsbad, Calif.) and luciferase activities were normalized to β-galactosidase activity. […] Results are expressed as means±SE for at least three replicate determinations for each treatment group.
(§2) (FIG. 2A). […] The structural specificity of Nur77 antagonists was further investigated using meta-hydroxy (DIM-C-mPhOH) and ortho-hydroxy (DIM-C-oPhOH) analogs. […] Thus, activation of Nur77 by C-DIMs was E/F domain-dependent and Nur77 activation was inhibited by DIM-C-pPhOH; moreover, both activation and inhibition of Nur77-mediated transactivation was dependent on the structure of the C-DIM compounds.

[3] = target: T2, GAL4-Nur77 (full length) chimera (Homo sapiens, UniProt P22736); assay: GAL4-Nur77 (full length)/pGAL4 luciferase transactivation in Panc-28 cells; assay type: cell-based; settings: for Nur77 activation, structure dependence (isomers and ring-substituted analogs): FIG. 1D, analogs data not shown; for luciferase activity, GAL4-Nur77 (full length)/pGAL4: Panc-28 cells, 10 or 20 μM (FIG. 1B)
T2 construct: Panc-28 cells transfected with a GAL4-Nur77 (full length) chimera; expressed in transfected cells; host or cells: Panc-28
Description: Structure-dependent activation of Nur77 by a series of eleven C-substituted DIMs was investigated in Panc-28 cells transfected with a GAL4-Nur77 (full length) chimera and a reporter construct containing five GAL4 response elements linked to a luciferase reporter gene (pGAL4).
as §1

[4] = system: PARP cleavage; assay: PARP cleavage in Panc-28 cells (Western blot); assay type: cell-based; settings: for effect of leptomycin B on PARP cleavage induced by Nur77 agonists: Panc-28, LMB 1 ng/ml cotreatment (FIG. 5E)
Experimental: The different cancer cell lines were cultured under standardized conditions. Panc-28 cells were grown in DMEM:Ham's F-12 media containing 2.5% charcoal stripped fetal bovine serum, and cells were treated with DMSO and different concentrations of test compounds as indicated. For longer term cell survival studies, the media was changed every second day, and values were presented for a 4 day experiment. For all other assays, cytosolic, nuclear fractions, or whole cell lysates were obtained at various time points, analyzed by Western blot analysis, and bands were quantitated as previously described (Qin, et al., 2004; Abdelrahim, et al., 2002). Immunocytochemical analysis was determined using Nur77 antibodies as previously reported (Abdelrahim, et al., 2002).

[5] = target: T3, GAL4-Nur77(E/F) (Homo sapiens, UniProt P22736); assay: GAL4-Nur77(E/F)/pGAL4 transactivation in Panc-28 cells; assay type: cell-based; settings: 5-15 μM (FIG. 2A)
T3 construct: a chimeric GAL4-Nur77(E/F) construct containing only the E/F domain of Nur77; expressed in transfected cells; host or cells: Panc-28
Description: as §1, §2

[6] = target: VP-Nur77 (ligand binding domain) / GAL4-coactivator chimeras (Homo sapiens, UniProt P22736); settings: Panc-28, VP-Nur77
Experimental: Panc-28 cells were plated in 12-well plates at 1×10^5 cells/well in DME-F12 media supplemented with 2.5% charcoal-stripped FBS. After growth for 16 hr, various amounts of DNA, i.e. Gal4Luc (0.4 μg), β-gal (0.04 μg), VP-Nur77(E/F) (0.04 μg), pM SRC1 (0.04 μg), pMSRC2 (0.04 μg), pMSRC3 (0.04 μg), pMDRIP205 (0.04 μg) and pMCARM-1 (0.04 μg) were transfected by Lipofectamine (Invitrogen) according to the manufacturer's protocol. After 5 hr of transfection, the transfection mix was replaced with complete media containing either vehicle (DMSO) or the indicated ligand for 20-22 hr. Cells were then lysed with 100 ml of 1X reporter lysis buffer, and 30 μl of cell extract were used for luciferase and β-Gal assays. Lumicount was used to quantitate luciferase and β-Gal activities, and the luciferase activities were normalized to β-Gal activity.
Ligand-induced Nur77-coactivator interactions were determined using a construct (pGAL4) containing 5 GAL4 response elements. Coactivators used in this study include SRC-1, SRC-2 (TIFII), SRC-3 (AIB1), PGC-1, TRAP220 and CARM-1. A GAL4-repressor (SMRT) chimera was also included in the assay.

[7] = target: T4, PPARγ (Homo sapiens, UniProt P37231); settings: Qin, et al., 2004, Chintharlapalli; cited from earlier work
T4 sequence (P37231 1-505): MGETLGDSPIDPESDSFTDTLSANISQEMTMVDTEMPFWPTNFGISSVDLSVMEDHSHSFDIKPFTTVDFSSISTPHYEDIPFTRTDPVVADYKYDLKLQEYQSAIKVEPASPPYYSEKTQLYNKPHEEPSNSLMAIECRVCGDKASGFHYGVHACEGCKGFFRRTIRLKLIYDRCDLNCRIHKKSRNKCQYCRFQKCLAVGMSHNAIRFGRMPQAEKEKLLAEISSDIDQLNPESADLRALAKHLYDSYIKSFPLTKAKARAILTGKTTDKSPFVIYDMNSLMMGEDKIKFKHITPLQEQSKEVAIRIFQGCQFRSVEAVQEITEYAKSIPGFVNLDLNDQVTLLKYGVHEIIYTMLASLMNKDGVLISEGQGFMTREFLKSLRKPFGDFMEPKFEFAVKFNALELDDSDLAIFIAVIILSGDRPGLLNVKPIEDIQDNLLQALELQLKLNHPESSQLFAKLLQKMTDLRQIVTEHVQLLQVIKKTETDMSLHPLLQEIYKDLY

[8] = target: T5, Nur77 (Homo sapiens, UniProt P22736); assay: Nur77 subcellular localization and level (immunostaining, Western blot of cytosolic and nuclear extracts); settings: for Nur77 translocation, Western blot of cytosolic and nuclear extracts: Panc-28, 10 or 20 μM, 12 hr (FIG. 4B); for Nur77 localization by immunostaining: Panc-28 cells, 10 μM, 6 hr (FIG. 4A)
Experimental: The different cancer cell lines were cultured under standardized conditions. Panc-28 cells were grown in DMEM:Ham's F-12 media containing 2.5% charcoal stripped fetal bovine serum, and cells were treated with DMSO and different concentrations of test compounds as indicated. […] For all other assays, cytosolic, nuclear fractions, or whole cell lysates were obtained at various time points, analyzed by Western blot analysis, and bands were quantitated as previously described (Qin, et al., 2004; Abdelrahim, et al., 2002). Immunocytochemical analysis was determined using Nur77 antibodies as previously reported (Abdelrahim, et al., 2002).
Sp1 is a nuclear protein and was used as a control to ensure efficient separation of the two extracts and Sp1 was identified only in the nuclear fraction.

[9] = system: TRAIL mRNA; assay: TRAIL mRNA in Panc-28 cells (RT-PCR); assay type: cell-based; settings: Panc-28 cells (FIG. 6B)
Experimental: cDNA was prepared from the Panc-28 cell line using a combination of oligodeoxythymidylic acid (Oligo d(T)16), and dNTP mix (Applied Biosystems) and Superscript II (Invitrogen). Each PCR was carried out in triplicate in a 20-μl volume using Sybr Green Mastermix (Applied Biosystems) for 15 min at 95° C. for initial denaturing, followed by 40 cycles of 95° C. for 30 s and 60° C. for 1 min in the ABI Prism 7700 Sequence Detection System. The ABI Dissociation Curves software was used following a brief thermal protocol (95° C. 15 s and 60° C. 20 s, followed by a slow ramp to 95° C.) to control for multiple species in each PCR amplification. Values for each gene were normalized to expression levels of TBP. The sequences of the primers used for RT-PCR were as follows: TRAIL forward, 5′-CGTGTACTTTACCAACGAGCTGA-3′, reverse, 5′-ACGGAGTTGCCACTTGACTTG-3′; and TBP forward, 5′-TGCACAGGAGCCAAGAGTGAA-3′, reverse, 5′-CACATCACAGCTCCCCACCA-3′.

[10] = system: Panc-28 cells; assay: Cell survival of Panc-28 cells; assay type: cell-based
Experimental: The different cancer cell lines were cultured under standardized conditions. Panc-28 cells were grown in DMEM:Ham's F-12 media containing 2.5% charcoal stripped fetal bovine serum, and cells were treated with DMSO and different concentrations of test compounds as indicated. For longer term cell survival studies, the media was changed every second day, and values were presented for a 4 day experiment.

[11] = system: TRAIL; assay: TRAIL protein expression in Panc-28 cells (Western blot); assay type: cell-based
Description: In thymocytes, there is evidence that Nur77-induced apoptosis is linked to transcriptional activation (uang, et al., 1999), and microarray studies in thymocytes undergoing Nur77-dependent apoptosis identified several apoptosis-related genes including fasL and TRAIL (Rajpal, et al., 2003). […] (FIG. 6B). Since TRAIL activates the extrinsic apoptosis pathway and activation of caspase 8, the effect of a caspase 8 inhibitor (Z-IETD-FMK) and the pan-caspase inhibitor (Z-VAD-FMK) was also investigated on induction of PARP cleavage by Nur77 agonists (FIG. 6C).

[12] = target: T5, Nur77; assay: Nur response element (NurRE) luciferase transactivation in Panc-28 cells; assay type: cell-based; design: endogenous in cells; host or cells: Panc-28; settings: 10 or 20 μM (FIG. 1C)
[13] = system: Panc-28 cell xenografts; assay: Tumor growth in athymic nude mice bearing Panc-28 cell xenografts; assay type: in vivo, athymic nude mice (BALB/c)
Experimental: Male athymic nude mice (BALB/c, ages 8-12 weeks) were purchased from Harlan (Indianapolis, Ind.). The mice were housed and maintained in laminar flow cabinets under specific pathogen-free conditions. Panc-28 cells were harvested from subconfluent cultures by trypsinization and washed. Panc-28 cells (2×10^6) were injected subcutaneously into each mouse on both flanks using a 30-gauge needle. The tumors were allowed to grow for 11 days until tumors were palpable. Mice were then randomized into two groups of seven mice per group and dosed by oral gavage with either corn oil or DIM-C-pPhOCH3 every second day. The volume of corn oil was 75 μl, and the dose of DIM-C-pPhOCH3 was 25 mg/kg/day. The mice were weighed, and tumor areas were also measured ever other day. Final body and tumor weights were determined at the end of the dosing regiment; and selected tissues were further examined by routine H & E staining and immunohistochemical analysis for apoptosis using the TUNEL assay.

[14] = Panc-28, cotreatment with DIM-C-pPhOH3 or DIM-C-Ph (FIG. 6E)

Sequence of VP-Nur77 (ligand binding domain) / GAL4-coactivator chimeras (P22736 360-595 limits assumed, change not shown): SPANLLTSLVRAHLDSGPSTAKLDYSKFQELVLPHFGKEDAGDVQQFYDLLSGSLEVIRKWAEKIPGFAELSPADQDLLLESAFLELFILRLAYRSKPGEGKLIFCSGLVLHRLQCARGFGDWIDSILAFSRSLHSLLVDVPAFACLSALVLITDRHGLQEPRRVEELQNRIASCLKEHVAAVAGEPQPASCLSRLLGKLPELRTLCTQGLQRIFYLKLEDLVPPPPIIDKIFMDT
T3 sequence (P22736 360-595 limits assumed): as the sequence (P22736 360-595 limits assumed, change not shown) above
T5 sequence (P22736 whole entry): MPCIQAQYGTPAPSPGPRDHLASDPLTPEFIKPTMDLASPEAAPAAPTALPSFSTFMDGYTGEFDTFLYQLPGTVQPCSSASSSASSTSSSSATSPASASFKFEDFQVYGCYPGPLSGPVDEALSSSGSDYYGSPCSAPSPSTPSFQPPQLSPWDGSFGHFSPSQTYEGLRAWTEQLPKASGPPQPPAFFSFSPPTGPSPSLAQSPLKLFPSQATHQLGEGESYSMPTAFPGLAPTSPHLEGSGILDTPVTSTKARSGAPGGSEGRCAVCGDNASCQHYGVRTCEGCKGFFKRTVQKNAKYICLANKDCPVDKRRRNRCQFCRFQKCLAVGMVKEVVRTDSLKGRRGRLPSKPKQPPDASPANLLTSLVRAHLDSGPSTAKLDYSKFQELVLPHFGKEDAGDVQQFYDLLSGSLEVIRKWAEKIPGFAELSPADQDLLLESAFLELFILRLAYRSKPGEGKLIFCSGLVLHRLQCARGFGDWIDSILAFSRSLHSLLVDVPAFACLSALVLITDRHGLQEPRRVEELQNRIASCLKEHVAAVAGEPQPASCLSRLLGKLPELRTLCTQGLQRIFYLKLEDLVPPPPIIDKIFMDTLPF
T2 sequence (P22736 whole entry, change not shown, the tested form may be a part): as the sequence (P22736 whole entry) above
T1 sequence (P22736 whole entry, the tested form may be a part): as the sequence (P22736 whole entry) above

SMILES: CC[C@@]1(O)C(=O)OCc2c1cc1n(c2=O)Cc2cc3ccccc3nc2-1 [camptothecin, reference compound]
annexin V-stained cells [1]: comparable

Nur77 antagonist activity (inhibition of agonist-induced transactivation) [2]: did not inhibit
SMILES: Oc1cccc(C(c2c[nH]c3ccccc23)c2c[nH]c3ccccc23)c1 [DIM-C-mPhOH]

SMILES: COc1cccc(C(c2c[nH]c3ccccc23)c2c[nH]c3ccccc23)c1 [DIM-C-mPhOCH3]
Nur77 activation, structure dependence (isomers and ring-substituted analogs) [3]: Only the para-substituted compound was active

SMILES: COc1ccccc1C(c1c[nH]c2ccccc12)c1c[nH]c2ccccc12 [DIM-C-oPhOCH3]
Nur77 activation, structure dependence (isomers and ring-substituted analogs) [3]: Only the para-substituted compound was active

SMILES: Oc1ccccc1C(c1c[nH]c2ccccc12)c1c[nH]c2ccccc12 [DIM-C-oPhOH]
Nur77 antagonist activity (inhibition of agonist-induced transactivation) [2]: did not exhibit Nur77 antagonist activity
toxicity in cotreated cells ([2]; high doses (20 μM) of both Nur77 agonists and DIM-C-oPhOH): toxic

SMILES: CCC(=C/[C@H](C)C/C=C/C(C)=C/[C@@H](C)C(=O)[C@@H](C)[C@H](O)[C@@H](C)C/C(C)=C/C(=O)O)/C=C/[C@@H]1OC(=O)C=C[C@@H]1C [leptomycin B, Leptomycin B]
PARP cleavage, LMB alone ([4]; Panc-28, 1 ng/ml (FIG. 5E)): slightly induced PARP cleavage
effect of leptomycin B on PARP cleavage induced by Nur77 agonists [4]: not affected
effect of leptomycin B on PARP cleavage induced by Nur77 agonists ([4]; listed as LMB): enhanced PARP cleavage

SMILES: FC(F)(F)c1ccc(C(c2c[nH]c3ccccc23)c2c[nH]c3ccccc23)cc1 [DIM-C-pPhCF3]
luciferase activity, GAL4-Nur77 (full length)/pGAL4 [3]: activated luciferase activity
luciferase activity, GAL4-Nur77(E/F)/pGAL4 [5]: induced luciferase activity
transactivation with GAL4-CARM-1 [6]: slightly activated
PPARγ activation [7]: also activates PPARγ
Nur77 translocation, Western blot of cytosolic and nuclear extracts [8]: translocation from the nucleus is not observed
Nur77 localization by immunostaining [8]: Nur77 remained in the nucleus

SMILES: c1ccc(C(c2c[nH]c3ccccc23)c2c[nH]c3ccccc23)cc1 [DIM-C-Ph]
luciferase activity, GAL4-Nur77 (full length)/pGAL4 [3]: activated luciferase activity
luciferase activity, GAL4-Nur77(E/F)/pGAL4 [5]: induced luciferase activity
TRAIL mRNA levels [9]: induced TRAIL mRNA levels
PPARγ activation [7]: PPARγ-inactive
Nur77 translocation, Western blot of cytosolic and nuclear extracts [8]: translocation from the nucleus is not observed
Nur77 localization by immunostaining [8]: Nur77 remained in the nucleus

SMILES: Oc1ccc(C(c2c[nH]c3ccccc23)c2c[nH]c3ccccc23)cc1 [DIM-C-pPhOH]
luciferase activity, GAL4-Nur77 (full length)/pGAL4 [3]: inactive; also recorded: did not induce activity
luciferase activity, GAL4-Nur77(E/F)/pGAL4 [5]: no response was observed
Nur77 antagonist activity (inhibition of agonist-induced transactivation) [2]: antagonizes activation of Nur77 by all three C-DIM compounds
effect on cell survival ([10]; Panc-28 (FIG. 5A)): did not affect cell survival
cell proliferation at longer time points ([10]; Panc-28, 4 and 6 days): slightly inhibited cell proliferation
induction of cell death ([10]; Panc-28, concentrations as high as 20 μM): induction of cell death was not observed
inhibition of PARP cleavage induced by Nur77 agonists [4, 14]: inhibited induction
cleavage of PARP ([4]; Panc-28 cells (FIG. 5B)): did not induce this response
inhibition of TRAIL protein expression induced by Nur77 agonists [11, 14]: inhibited induction
TRAIL protein expression ([11]; Panc-28 cells (FIG. 6A)): did not induce TRAIL
activation of NurRE construct [12]: inactive

SMILES: COc1ccc(C(c2c[nH]c3ccccc23)c2c[nH]c3ccccc23)cc1 [DIM-C-pPhOCH3]
Nur77 activation, structure dependence (isomers and ring-substituted analogs) [3]: active
luciferase activity, GAL4-Nur77 (full length)/pGAL4 [3]: activated luciferase activity
luciferase activity, GAL4-Nur77(E/F)/pGAL4 [5]: induced luciferase activity
annexin V-stained cells [1]: time- and dose-dependent increase
PI staining after 6 hr ([1]; Panc-28, 6 hr): minimal PI staining
annexin V-stained cells after 6 hr ([1]; Panc-28, 6 hr): significantly increased
PI staining after 12 hr ([1]; Panc-28, 12 hr): PI staining was increased
TRAIL mRNA levels [9]: induced TRAIL mRNA levels
animal weight gain and organ weights ([13]; 25 mg/kg/day vs corn oil): comparable
tumor weights ([13]; 25 mg/kg/day, oral gavage (FIG. 7B)): parallel decrease in tumor weights
tumor growth (area) ([13]; 25 mg/kg/day, oral gavage every second day (FIG. 7A)): significantly inhibited tumor growth
brain regions by H & E staining ([13]; treated vs corn oil): did not indicate any differences
transactivation with GAL4-CARM-1 [6]: slightly activated
transactivation with GAL4-SRC-3 [6]: induced transactivation
PPARγ activation [7]: PPARγ-inactive
Nur77 translocation, Western blot of cytosolic and nuclear extracts [8]: translocation from the nucleus is not observed
Nur77 localization by immunostaining [8]: Nur77 remained in the nucleus
